{
  "source": "patent US20040138238A1",
  "about": "“Substituted aminopyrimidine compounds as neurokinin antagonists” (priority 2002, published 2004)",
  "key": {"[1]": {"molecular_target": "NK1 receptors (Homo sapiens, UniProt P25103)", "sequence (P25103 whole entry)": "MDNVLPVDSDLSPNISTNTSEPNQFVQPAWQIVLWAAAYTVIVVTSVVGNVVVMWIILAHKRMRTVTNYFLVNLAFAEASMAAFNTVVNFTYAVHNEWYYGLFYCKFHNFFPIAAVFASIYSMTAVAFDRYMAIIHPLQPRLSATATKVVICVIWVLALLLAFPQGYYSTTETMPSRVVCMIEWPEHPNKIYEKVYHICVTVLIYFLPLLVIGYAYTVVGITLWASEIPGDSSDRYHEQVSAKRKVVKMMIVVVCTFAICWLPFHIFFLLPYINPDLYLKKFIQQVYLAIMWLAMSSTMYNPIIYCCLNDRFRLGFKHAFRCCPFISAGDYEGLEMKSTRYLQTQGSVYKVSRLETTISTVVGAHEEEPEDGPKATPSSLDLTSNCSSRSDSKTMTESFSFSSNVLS", "test": "in vitro binding to NK1 receptors", "method": "(§1) The activity of compounds of the invention were tested in vitro for binding to NK1 and NK2 receptors."}, "[2]": {"molecular_target": "T1, NK2 receptors (Homo sapiens, UniProt P21452)", "T1 sequence (P21452 1-398)": "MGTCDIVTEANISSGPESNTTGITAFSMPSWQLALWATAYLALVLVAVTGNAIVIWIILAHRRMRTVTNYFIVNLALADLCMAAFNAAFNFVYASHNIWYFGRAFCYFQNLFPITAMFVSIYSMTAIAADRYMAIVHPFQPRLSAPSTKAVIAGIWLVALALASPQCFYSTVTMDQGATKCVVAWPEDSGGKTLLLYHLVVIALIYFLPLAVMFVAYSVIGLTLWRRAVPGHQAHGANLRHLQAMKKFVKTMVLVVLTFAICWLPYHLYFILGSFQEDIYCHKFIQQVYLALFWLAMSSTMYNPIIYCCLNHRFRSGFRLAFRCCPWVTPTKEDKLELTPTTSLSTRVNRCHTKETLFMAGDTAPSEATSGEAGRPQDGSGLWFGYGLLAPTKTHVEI", "test": "in vitro binding to NK2 receptors", "design": "Ki (NK2), % @ 1000: concentration or dose not given beside the values", "conditions": "for Ki (NK2), % @ 1000: @ 1000 (concentration unit not given)", "method": "as §1"}},
  "note": "Like-named read-outs stand apart in the source and are kept apart here.",
  "data": [
    {"smiles": "OC(CNC1CCN(c2ncnc3scc(-c4ccccc4)c23)CC1)COc1ccc(F)cc1F", "note": "(centres unmarked) [1-(2,4-Difluoro-phenoxy)-3-[1-(5-phenyl-thieno[2,3-d]pyrimidin-4-yl)-piperidin-4-ylamino]-propan-2-ol]", "values": [
      {"measurement": "Ki", "setting": "[1]", "result": 0.286, "unit": "µM"}
    ]},
    {"smiles": "COc1ccc(OCC(O)CNC2CCN(c3ncnc4scc(-c5ccccc5)c34)CC2)c(Cl)c1", "note": "(centres unmarked) [1-(2-Chloro-4-methoxy-phenoxy)-3-[1-(5-phenyl-thieno[2,3-d]pyrimidin-4-yl)-piperidin-4-ylamino]-propan-2-ol]", "values": [
      {"measurement": "Ki", "setting": "[2]; unit inferred", "result": 1.57, "unit": "µM"},
      {"measurement": "Ki", "setting": "[1]", "result": 0.109, "unit": "µM"}
    ]},
    {"smiles": "OC(CNC1CCN(c2ncnc3scc(-c4ccccc4)c23)CC1)COc1ccc(Cl)c(Cl)c1", "note": "(centres unmarked) [1-(3,4-Dichloro-phenoxy)-3-[1-(5-phenyl-thieno[2,3-d]pyrimidin-4-yl)-piperidin-4-ylamino]-propan-2-ol]", "values": [
      {"measurement": "Ki", "setting": "[2]; unit inferred", "result": 3.39, "unit": "µM"},
      {"measurement": "Ki", "setting": "[1]", "result": 0.268, "unit": "µM"}
    ]},
    {"smiles": "OC(CNC1CCN(c2ncnc3scc(-c4ccccc4)c23)CC1)COc1ccc(F)c(F)c1", "note": "(centres unmarked) [1-(3,4-Difluoro-phenoxy)-3-[1-(5-phenyl-thieno[2,3-d]pyrimidin-4-yl)-piperidin-4-ylamino]-propan-2-ol]", "values": [
      {"measurement": "Ki (NK2), % @ 1000", "setting": "[2]", "result": 28, "unit": "% @"},
      {"measurement": "Ki", "setting": "[1]", "result": 0.075, "unit": "µM"}
    ]},
    {"smiles": "COc1ccc(OCC(O)CNC2CCN(c3ncnc4scc(-c5ccccc5)c34)CC2)cc1OC", "note": "(centres unmarked) [1-(3,4-Dimethoxy-phenoxy)-3-[1-(5-phenyl-thieno[2,3-d]pyrimidin-4-yl)-piperidin-4-ylamino]-propan-2-ol]", "values": [
      {"measurement": "Ki", "setting": "[2]; unit inferred", "result": 6.25, "unit": "µM"},
      {"measurement": "Ki", "setting": "[1]", "result": 0.126, "unit": "µM"}
    ]},
    {"smiles": "OC(CNC1CCN(c2ncnc3scc(-c4ccccc4)c23)CC1)COc1cc(C(F)(F)F)cc(C(F)(F)F)c1", "note": "(centres unmarked) [1-(3,5-Bis-trifluoromethyl-phenoxy)-3-[1-(5-phenyl-thieno[2,3-d]pyrimidin-4-yl)-piperidin-4-ylamino]-propan-2-ol]", "values": [
      {"measurement": "Ki", "setting": "[2]; unit inferred", "result": "> 1", "unit": "µM"},
      {"measurement": "Ki", "setting": "[1]", "result": 1.31, "unit": "µM"}
    ]},
    {"smiles": "OC(CNC1CCN(c2ncnc3scc(-c4ccccc4)c23)CC1)COc1cc(F)cc(F)c1", "note": "(centres unmarked) [1-(3,5-Difluoro-phenoxy)-3-[1-(5-phenyl-thieno[2,3-d]pyrimidin-4-yl)-piperidin-4-ylamino]-propan-2-ol]", "values": [
      {"measurement": "Ki (NK2), % @ 1000", "setting": "[2]", "result": 21, "unit": "% @"},
      {"measurement": "Ki", "setting": "[1]", "result": 0.272, "unit": "µM"}
    ]},
    {"smiles": "OC(CNC1CCN(c2ncnc3scc(-c4ccccc4)c23)CC1)COc1ccc(F)c(Cl)c1", "note": "(centres unmarked) [1-(3-Chloro-4-fluoro-phenoxy)-3-[1-(5-phenyl-thieno[2,3-d]pyrimidin-4-yl)-piperidin-4-ylamino]-propan-2-ol]", "values": [
      {"measurement": "Ki", "setting": "[1]", "result": 0.137, "unit": "µM"}
    ]},
    {"smiles": "COc1cc(OCC(O)CNC2CCN(c3ncnc4scc(-c5ccccc5)c34)CC2)ccc1Cl", "note": "(centres unmarked) [1-(4-Chloro-3-methoxy-phenoxy)-3-[1-(5-phenyl-thieno[2,3-d]pyrimidin-4-yl)-piperidin-4-ylamino]-propan-2-ol]", "values": [
      {"measurement": "Ki (NK2), % @ 1000", "setting": "[2]", "result": 47, "unit": "% @"},
      {"measurement": "Ki", "setting": "[1]", "result": 0.126, "unit": "µM"}
    ]},
    {"smiles": "COc1ccc(OCC(O)CNC2CCN(c3ncnc4scc(-c5ccccc5)c34)CC2)cc1", "note": "(centres unmarked) [1-(4-Methoxy-phenoxy)-3-[1-(5-phenyl-thieno[2,3-d]pyrimidin-4-yl)-piperidin-4-ylamino]-propan-2-ol]", "values": [
      {"measurement": "Ki", "setting": "[2]", "result": 1.7, "unit": "µM"},
      {"measurement": "Ki", "setting": "[1]", "result": 0.053, "unit": "µM"}
    ]},
    {"smiles": "OC(CNC1CCN(c2ncnc3sccc23)CC1)COc1ccc2c(c1)OCO2", "note": "(centres unmarked) [1-(Benzo[1,3]dioxol-5-yloxy)-3-(1-thieno[2,3-d]pyrimidin-4-yl-piperidin-4-ylamino)-propan-2-ol]", "values": [
      {"measurement": "Ki", "setting": "[1]", "result": 1.83, "unit": "µM"}
    ]},
    {"smiles": "Cc1csc2ncnc(N3CCC(NCC(O)COc4ccc5c(c4)OCO5)CC3)c12", "note": "(centres unmarked) [1-(Benzo[1,3]dioxol-5-yloxy)-3-[1-(5-methyl-thieno[2,3-d]pyrimidin-4-yl)-piperidin-4-ylamino]-propan-2-ol]", "values": [
      {"measurement": "Ki", "setting": "[1]", "result": 0.868, "unit": "µM"}
    ]},
    {"smiles": "OC(CNC1CCN(c2ncnc3scc(-c4ccccc4)c23)CC1)COc1ccc2c(c1)OCO2", "note": "(centres unmarked) [1-(Benzo[1,3]dioxol-5-yloxy)-3-[1-(5-phenyl-thieno[2,3-d]pyrimidin-4-yl)-piperidin-4-ylamino]-propan-2-ol]", "values": [
      {"measurement": "Ki", "setting": "[2]; unit inferred", "result": "> 10", "unit": "µM"},
      {"measurement": "Ki", "setting": "[1]", "result": 0.0076, "unit": "µM"}
    ]},
    {"smiles": "OC(CNC1CCN(c2ncnc3scc(-c4ccccc4)c23)CC1)COc1ccc(OC(F)(F)F)cc1", "note": "(centres unmarked) [1-[1-(5-Phenyl-thieno[2,3-d]pyrimidin-4-yl)-piperidin-4-ylamino]-3-(4-trifluoromethoxy-phenoxy)-propan-2-ol]", "values": [
      {"measurement": "Ki (NK2), % @ 1000", "setting": "[2]", "result": 49, "unit": "% @"},
      {"measurement": "Ki", "setting": "[1]", "result": 0.015, "unit": "µM"}
    ]},
    {"smiles": "Fc1ccc(OCC2CN(C3CCN(c4ncnc5scc(-c6ccccc6)c45)CC3)CCO2)cc1", "note": "(centres unmarked) [4-{4-[2-(4-Fluoro-phenoxymethyl)-morpholin-4-yl]-piperidin-1-yl}-5-phenyl-thieno[2,3-d]pyrimidine]", "values": [
      {"measurement": "Ki", "setting": "[1]", "result": 0.472, "unit": "µM"}
    ]},
    {"smiles": "c1ccc(-c2csc3ncnc(N4CCC(N5CCOC(COc6ccc7c(c6)OCO7)C5)CC4)c23)cc1", "note": "(centres unmarked) [4-{4-[2-(Benzo[1,3]dioxol-5-yloxymethyl)-morpholin-4-yl]-piperidin-1-yl}-5-phenyl-thieno[2,3-d]pyrimidine]", "values": [
      {"measurement": "Ki", "setting": "[1]", "result": 1.86, "unit": "µM"}
    ]},
    {"smiles": "O=C1COC(COc2ccc3c(c2)OCO3)CN1C1CCN(c2ncnc3scc(-c4ccccc4)c23)CC1", "note": "(centres unmarked) [6-(Benzo[1,3]dioxol-5-yloxymethyl)-4-[1-(5-phenyl-thieno[2,3-d]pyrimidin-4-yl)-piperidin-4-yl]-morpholin-3-one]", "values": [
      {"measurement": "Ki", "setting": "[1]", "result": 1.32, "unit": "µM"}
    ]},
    {"smiles": "OC(CNC1CCN(c2ncnc3scc(-c4ccccc4)c23)CC1)COCc1ccccc1", "note": "(centres unmarked) [(3-Benzyloxy-2-hydroxy-propyl)-[1-(5-phenyl-thieno[2,3-d]pyrimidin-4-yl)-piperidin-4-yl]-ammonium; chloride]", "values": [
      {"measurement": "Ki", "setting": "[2]", "result": 2.4, "unit": "µM"},
      {"measurement": "Ki", "setting": "[1]", "result": 0.141, "unit": "µM"}
    ]},
    {"smiles": "Cl.OC(CNC1CCN(c2ncnc3scc(-c4ccccc4)c23)CC1)COc1ccc(C(F)(F)F)cc1", "note": "(centres unmarked) [[2-Hydroxy-3-(4-trifluoromethyl-phenoxy)-propyl]-[1-(5-phenyl-thieno[2,3-d]pyrimidin-4-yl)-piperidin-4-yl]-ammonium; chloride]", "values": [
      {"measurement": "Ki (NK2), % @ 1000", "setting": "[2]", "result": 14, "unit": "% @"},
      {"measurement": "Ki", "setting": "[1]", "result": 0.053, "unit": "µM"}
    ]},
    {"smiles": "Cl.OC(CNC1CCN(c2ncnc3scc(-c4ccccc4)c23)CC1)COc1ccc(Cl)c(Cl)c1", "note": "(centres unmarked) [[3-(3,4-Dichloro-phenoxy)-2-hydroxy-propyl]-[1-(5-phenyl-thieno[2,3-d]pyrimidin-4-yl)-piperidin-4-yl]-ammonium; chloride]", "values": [
      {"measurement": "Ki (NK2), % @ 1000", "setting": "[2]", "result": 28, "unit": "% @"},
      {"measurement": "Ki", "setting": "[1]", "result": 0.02, "unit": "µM"}
    ]},
    {"smiles": "OC(CNC1CCN(c2ncnc3scc(-c4ccccc4)c23)CC1)COc1ccc(Cl)cc1", "note": "(centres unmarked) [[3-(4-Chloro-phenoxy)-2-hydroxy-propyl]-[1-(5-phenyl-thieno[2,3-d]pyrimidin-4-yl)-piperidin-4-yl]-ammonium; chloride]", "values": [
      {"measurement": "Ki", "setting": "[2]; unit inferred", "result": "> 10", "unit": "µM"},
      {"measurement": "Ki", "setting": "[1]", "result": 0.91, "unit": "µM"}
    ]}
  ]
}
